Legend:
piglets = assay: animal health status controlled daily during the feeding trial; assay type: in vivo, Large White×Landrace×Piétrain piglets; conditions: piglets fed alternately diet with or without 0.5% benzoic acid, 2 periods of 12 days
From the text: The animal health status was controlled daily.
At the beginning of the study all the piglets had recovered from the anesthesia and the surgery. […] All the feedings and all the sampling could be achieved.

[1] = tested on: ileo-rectal anastomosed piglets; assay: ileal apparent digestibility of nitrogen, energy and amino acids in ileo-rectal anastomosed piglets; assay type: in vivo, Large White×Landrace×Piétrain piglets; conditions: for ileal apparent lysine digestibility / ileal apparent threonine digestibility: mean ± σ
Experimental: Ten Large White×Landrace×Piétrain piglets were used. The animals were obtained from the GAEC Leclerc, F-68150 Ostheim and were 60 days old at the beginning of the experiment.
Each animal was subjected to an ileo-rectal anastomosis according to the techniques described by Laplace et al. (1994). After surgery piglets were housed individually in stainless-steel metabolic cages in an animal room under controlled temperature (22° C.), humidity (50%), ventilation (1100 m3/h) and lighting (12 hours light/12 hours darkness cycle). […] Meanwhile they were fed ad libitum a vegetal based diet for piglets and had free access to tap water.
During the experimental period, piglets were fed each and alternatively the vegetal based diet supplemented or not with 0.5% benzoic acid.
An indigestible tracer, chromium oxide, was added at a concentration of 0.4% to all the diets in order to measure ileal apparent digestibility.
The experience was composed of 2 periods of 12 days each divided in 10 adaptation days and in 2 ileal content sampling days.
Each animal was fed alternatively with each diet, so that each diet was tested 10 times.
For the digestibility estimations, samples of ileal content were collected daily, during the 2 sampling days, from 8 AM to 3 PM, as soon as they were produced. Immediately after each sampling, the collected contents were weighed and frozen at −80° C. All the daily samples from the same piglet were bulked. Before analysis the samples were freeze dried and grounded to a fine powder. A total of […] samples were obtained for each diet.
The dry matter contents of the freeze-dried samples were determined after drying overnight at 105° C., 20 g of the diets and 15 g of the ileal samples, according to the standard Association of Official Analytical Chemists (AOAC) procedure (1990).
The diets and ileal samples chromium oxide levels were determined by inductively coupled plasma-atomic emission spectrometry (ICP) after mineralization at 350° C. during 20 min with oxidant reagent.
Total energy levels were determined on the freeze-dried diets and ileal contents using a calorimeter IKA C7000.
Total nitrogen concentrations were determined on the freeze-dried diets and ileal contents using a nitrogen analyzer LECO FP-428.
Total amino acids were determined after an acidic hydrolysis on the freeze-dried diets and intestinal contents. Tryptophan analysis was omitted. Cys and Met were analyzed as cysteic acid and methionine sulfone after oxidation with formic acid and hydrogen peroxide followed by an acidic hydrolysis at 110° C. with 6 N HCl. All the other amino acids were analyzed after an acidic hydrolysis at 110° C. with 6 N HCl.
Individual amino acid concentrations were measured after derivation using Waters AccQ.Fluor reagent and quantified by reversed-phase HPLC by fluorescence detection after elution on a Pico.Tag C18 column.
Correcting with the dry matter, the chromium oxide and the diet tested parameter concentrations, all the tested parameter levels of the freeze-dried ileal contents were expressed in % apparent digestibility using the following formula:
[formula] • Ci=parameter concentration (% dry matter) in the ileal content • Cd=parameter concentration (% dry matter) in the diet • Mi=chromium oxide concentration (% dry matter) in the ileal content • Md=chromium oxide concentration (% dry matter) in the diet
For each test group, statistic analysis of the data involved the calculation of the mean and standard deviation of the mean as well as an analysis of variance followed by Student's “t” test to assess the significance of group differences between group A and benzoic acid supplemented group B for a probability of 10% for the amino acids and 5% for nitrogen and energy.

[2] = 0.5% benzoic acid in diet vs non-supplemented diet, statistically non-significant (p<0.10)
[3] = 0.5% benzoic acid in diet vs non-supplemented diet, statistically significant (p<0.05)
[4] = 0.5% benzoic acid in diet vs non-supplemented diet, statistically significant (p<0.10)
[5] = piglets, Benzoic acid 0.5% in diet
[6] = piglets, diet supplemented with 0.5% benzoic acid, mean ± SD
[7] = piglets, diet supplemented with 0.5% benzoic acid
[8] = piglets, diet supplemented with 0.5% benzoic acid, listed as Benzoic acid

O=C(O)c1ccccc1 [benzoic acid]
symptoms of illness or toxicosis (piglets): None of the animals showed during the experimental period, any symptoms of illness or toxicosis
increase of ileal apparent sulfured amino acids digestibility compared to the control group [1, 2]: 2.9%
increase of ileal apparent threonine digestibility compared to the control group [1, 2]: 2.7%
increase of ileal apparent energy digestibility compared to the control group [1, 3]: 4.4%
increase of ileal apparent total nitrogen digestibility compared to the control group [1, 3]: 5.3%
increase of ileal apparent branched chain amino acids digestibility compared to the control group [1, 4]: 2.9%
increase of ileal apparent essential amino acids digestibility compared to the control group [1, 4]: 2.9%
increase of ileal apparent lysine digestibility compared to the control group [1, 4]: 3.5%
increase of ileal apparent total amino acids digestibility compared to the control group [1, 4]: 2.9%
Mean digestibility ± σ, Ala (ileal apparent) [1, 5]: 75.3 ± 3.7%
Mean digestibility ± σ, Arg (ileal apparent) [1, 5]: 87.0 ± 1.8%
Mean digestibility ± σ, Asp + Asn (ileal apparent) [1, 5]: 79.1 ± 3.2%
Mean digestibility ± σ, Cys (ileal apparent) [1, 5]: 79.7 ± 4.4%
Mean digestibility ± σ, Glu + Gln (ileal apparent) [1, 5]: 86.7 ± 2.1%
Mean digestibility ± σ, Gly (ileal apparent) [1, 5]: 75.1 ± 4.4%
Mean digestibility ± σ, His (ileal apparent) [1, 5]: 86.4 ± 2.5%
Mean digestibility ± σ, Hyp (ileal apparent) [1, 5]: 41.4 ± 13.4%
Mean digestibility ± σ, Ile (ileal apparent) [1, 5]: 81.5 ± 3.6%
Mean digestibility ± σ, Leu (ileal apparent) [1, 5]: 84.5 ± 2.4%
Mean digestibility ± σ, Met (ileal apparent) [1, 5]: 80.7 ± 3.5%
Mean digestibility ± σ, Phe (ileal apparent) [1, 5]: 84.5 ± 2.3%
Mean digestibility ± σ, Pro (ileal apparent) [1, 5]: 85.8 ± 2.4%
Mean digestibility ± σ, Ser (ileal apparent) [1, 5]: 82.6 ± 2.9%
Mean digestibility ± σ, Tyr (ileal apparent) [1, 5]: 80.8 ± 2.8%
Mean digestibility ± σ, Val (ileal apparent) [1, 5]: 79.5 ± 3.6%
ileal apparent branched chain amino acids digestibility [1, 6]: 82.7±2.8%
ileal apparent energy digestibility [1, 6]: 72.6±4.7%
ileal apparent essential amino acids digestibility [1, 6]: 82.7±2.6%
ileal apparent sulfured amino acids digestibility [1, 6]: 80.1±3.5%
ileal apparent total amino acids digestibility [1, 6]: 82.0±2.7%
ileal apparent total nitrogen digestibility [1, 6]: 77.7±3.1%
ileal apparent lysine digestibility [1, 7]: 82.3±2.8%
ileal apparent threonine digestibility [1, 7]: 78.0±3.9%
ileal apparent lysine digestibility [1, 8]: 82.3 ± 2.8%
ileal apparent threonine digestibility [1, 8]: 78.0 ± 3.9%

Reference: patent US20100160438A1, “NOVEL USE OF A NUTRACEUTICAL COMPOSITION IN ANIMAL FEED” (priority 2006, published 2010)
